Structures can show the parent of a compound that is named as a salt. Where two headings read alike, the source gives them in different places.
Assays:
[1] = tested on: Pen.notatum CBS 19746; experiment: Fungistatic effect, serial dilution test (microtitre system); format: cell-based; details: Penicillium chrysogenum
Method: (§1) IV. Bestimmung der fungistatischen Wirkung
(§2) Die fungistatische Wirkung wurde über den Reihenverdünnungstest (Mikrotitersystem) bestimmt. Als Nährmedium diente Sabouraud-Bouillon. Das Inoculum betrug ca. 10^4 bis 10^5 KBE/ml (KBE = koloniebildende Einheiten); die Bebrütungszeit betrug 2 bis 4 Tage bei 26°C.
(§3) Es wurde die niedrigste Konzentration, die sichtbares Wachstum nicht mehr zuließ (minimale Hemmkonzentration MHK), bestimmt.
(§4) Geprüft wurden die vorstehend erwähnten Verbindungen A, B, D, E, F, H, I, K, L und M. Die Ergebnisse sind in der folgenden Tabelle 5 zusammengefaßt. Die MHK ist in µg/ml angegeben.

[2] = tested on: Rhod. rubra 49; experiment: as above; format: cell-based; details: read-out: MHK
Method: as §1, §2, §3, §4

[3] = tested on: Cand. albicans ATCC 10231; experiment: as above; format: cell-based; details: Candida albicans
Method: as §1, §2, §3, §4

[4] = tested on: Trich. mentagrophytes ATCC 9129; experiment: as above; format: cell-based; details: Trichophyton mentagrophytes
Method: as §1, §2, §3, §4

[5] = tested on: Sacch. carlsbergensis ATCC 9080; experiment: as above; format: cell-based; details: Saccharomyces pastorianus
Method: as §1, §2, §3, §4

[6] = tested on: Asp. niger ATCC 16404; experiment: as above; format: cell-based; details: Aspergillus niger
Method: as §1, §2, §3, §4

[7] = Lipid lowering in the normolipaemic golden hamster; format: in vivo, Goldhamster; details: compared with control group fed without test substance
Source text: III. Lipidsenkung am normolipämischen Goldhamster.
Diese Bestimmung wurde nach der in J. Lipid. Res. 38, 564-575, (1997) beschriebenen Methode durchgeführt. Am Ende des Versuchs wurde Gesamtcholesterol, β-Lipoprotein-Cholesterol sowie HDL-Cholesterol bestimmt und mit den Werten einer ohne Testsubstanz gefütterten Kontrollgruppe verglichen.

[8] = tested on: 2,3-Epoxisqualen-Lanosterol-Cyclase; experiment: In-vivo effect in the rat after oral administration: 2,3-epoxysqualene level in the liver; design: species or system Ratte
Method: II. Messung der in-vivo Wirkung an der Ratte nach oraler Gabe
Die Inhibierung des Enzyms 2,3-Epoxisqualen-Lanosterol-Cyclase bewirkt eine Erhöhung der 2,3-Epoxisqualenspiegel in Leber und Plasma. Die Menge an gebildetem 2,3-Epoxisqualen dient daher als direktes Maß für die Wirkstärke am Ganztier.Die Bestimmung wurde nach der in J. Lipid. Res. 38, 564-575, [1997] beschriebenen Methode nach t = 3 bzw. 8 Stunden nach Substanzgabe mit Konzentrationen von c = 0.01, 0.03, 0.1, 0.3 und 1.0 mg/kg durchgeführt. In der folgenden Tabelle 3 sind beispielhaft die Ergebnisse für die vorstehend erwähnten Substanzen A, B, C, D, E, G, H, I und K angegeben.

[9] = biological target: T1, ^14C-Acetat-Einbau in die mit Digitonin fällbaren Steroide (Homo sapiens, UniProt P48449); experiment: Inhibition of 14C-acetate incorporation into digitonin-precipitable steroids; format: cell-based; details: read-out: Prozentwerte, um die die Verbindungen den ^14C-Acetat-Einbau hemmen
T1 sequence (P48449 2-732): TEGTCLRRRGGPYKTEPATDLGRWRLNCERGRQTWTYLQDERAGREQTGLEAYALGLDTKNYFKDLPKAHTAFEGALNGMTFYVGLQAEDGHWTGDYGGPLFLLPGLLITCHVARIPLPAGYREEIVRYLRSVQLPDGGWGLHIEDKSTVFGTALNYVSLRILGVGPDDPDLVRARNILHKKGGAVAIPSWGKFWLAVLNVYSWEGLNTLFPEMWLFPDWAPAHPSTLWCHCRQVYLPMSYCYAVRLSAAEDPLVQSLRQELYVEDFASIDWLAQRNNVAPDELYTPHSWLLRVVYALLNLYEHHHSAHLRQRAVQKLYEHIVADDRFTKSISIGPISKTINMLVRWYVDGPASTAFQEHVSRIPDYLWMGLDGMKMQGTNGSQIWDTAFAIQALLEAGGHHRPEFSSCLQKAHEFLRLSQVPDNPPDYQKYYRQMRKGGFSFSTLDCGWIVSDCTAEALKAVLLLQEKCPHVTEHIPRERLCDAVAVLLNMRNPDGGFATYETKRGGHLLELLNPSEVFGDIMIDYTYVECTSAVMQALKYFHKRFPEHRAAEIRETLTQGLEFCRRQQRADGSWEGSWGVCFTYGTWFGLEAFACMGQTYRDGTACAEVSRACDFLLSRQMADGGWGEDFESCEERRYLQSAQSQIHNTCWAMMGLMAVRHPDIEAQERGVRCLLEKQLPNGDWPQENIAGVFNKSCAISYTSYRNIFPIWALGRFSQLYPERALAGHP
Source text: I. Messung der Hemmung des ^14C-Acetat-Einbaus in die mit Digitonin fällbaren Steroide:
Die Untersuchung der Hemmwirkung wurde nach der in J. Lipid. Res. 37, 148-157 [1996] beschriebenen Methode bei Testkonzentrationen von 10^-8 und 10^-9 Mol/l durchgeführt.
Die Prozentwerte, um die obigen Verbindungen den ^14C-Acetat-Einbau hemmen, sind in Tabelle 1 angegeben.

| Compound | MIC ([1]; CBS19746, read-out: MHK) | MIC [2] | MIC ([3]; ATCC10231, read-out: MHK) | MIC ([4]; ATCC9129, read-out: MHK) | MIC ([5]; ATCC9080, read-out: MHK) | MIC ([6]; ATCC16404, read-out: MHK) | 2,3-Epoxysqualen-Konzentration in der Leber (Ratte) ([8]; c = 0.1 mg/kg, t = 3 h) | 2,3-Epoxysqualen-Konzentration in der Leber (Ratte) ([8]; c = 0.1 mg/kg, t = 8 h) | 2,3-Epoxysqualen-Konzentration in der Leber (Ratte) ([8]; c = 1.0 mg/kg, t = 3 h) | 2,3-Epoxysqualen-Konzentration in der Leber (Ratte) ([8]; c = 1.0 mg/kg, t = 8 h) | inhibition at 0.001 µM [9] | inhibition at 0.01 µM [9] | other results |
| --- | --- | --- | --- | --- | --- | --- | --- | --- | --- | --- | --- | --- | --- |
| Cc1ccc(OC(=O)N2CCC(Cc3ccc(CN(C)C)cc3)CC2)cc1.Cl [K, 4-[4-(Dimethylaminomethyl)benzyl] -N-(4-methylphenoxy)-carbonylpiperidin-hydrochlorid] | 256 µg/mL | 64 µg/mL | 64 µg/mL | 8 µg/mL | 512 µg/mL | 64 µg/mL | 0.4 µg/g | 0.4 µg/g | 24.0 µg/g | 5.5 µg/g | 49% | 82% | Gesamtcholesterol ([7]; Dosis 54.2 mg/kg/Tag): -6.8%; HDL-Cholesterol ([7]; Dosis 54.2 mg/kg/Tag): 2.3%; β-Lipoprotein-Cholesterol ([7]; Dosis 54.2 mg/kg/Tag): -21.2% |
| CN(C)Cc1ccc(CC2CCN(C(=O)Oc3ccc(Cl)cc3)CC2)cc1 [Verbindung H, N-(4-Chlorphenoxy)carbonyl-4-[4-(dimethylaminomethyl)-benzyl]piperidin-hydrochlorid] | 64 µg/mL | 16 µg/mL | 64 µg/mL | 1 µg/mL | 128 µg/mL | 32 µg/mL | 1.0 µg/g | 0.8 µg/g | 56.3 µg/g | 20.7 µg/g | 45% | 80% | Gesamtcholesterol ([7]; Dosis 6.5 mg/kg/Tag): -8.3%; HDL-Cholesterol ([7]; Dosis 6.5 mg/kg/Tag): -3.4%; β-Lipoprotein-Cholesterol ([7]; Dosis 6.5 mg/kg/Tag): -13.0%; Gesamtcholesterol ([7]; Dosis 19.9 mg/kg/Tag): -11.0%; HDL-Cholesterol ([7]; Dosis 19.9 mg/kg/Tag): -8.2%; β-Lipoprotein-Cholesterol ([7]; Dosis 19.9 mg/kg/Tag): -13.2%; Gesamtcholesterol ([7]; Dosis 62.3 mg/kg/Tag): -32.1%; HDL-Cholesterol ([7]; Dosis 62.3 mg/kg/Tag): -28.5%; β-Lipoprotein-Cholesterol ([7]; Dosis 62.3 mg/kg/Tag): -33.7% |
| CN(C)Cc1ccc(CC2CCN(C(=O)OCc3ccccc3)CC2)cc1.Cl [Verbindung I, N-Benzyloxycarbonyl-4-[4-(dimethylaminomethyl)benzyl]-piperidin-hydrochlorid] | – | – | – | – | – | – | 1.0 µg/g | – | 26.1 µg/g | 10.0 µg/g | – | – | MIC ([1]; CBS19746, Pen., Sabouraud-Bouillon, 2 bis 4 Tage bei 26°C, read-out: MHK): 128 µg/mL; MIC ([2]; Rhod., Sabouraud-Bouillon, 2 bis 4 Tage bei 26°C): 64 µg/mL; MIC ([3]; ATCC10231, Cand., Sabouraud-Bouillon, 2 bis 4 Tage bei 26°C, read-out: MHK): 256 µg/mL; MIC ([4]; ATCC9129, Trich., Sabouraud-Bouillon, 2 bis 4 Tage bei 26°C, read-out: MHK): 4 µg/mL; MIC ([5]; ATCC9080, Sacc., Sabouraud-Bouillon, 2 bis 4 Tage bei 26°C, read-out: MHK): 512 µg/mL; MIC ([6]; ATCC16404, Asp., Sabouraud-Bouillon, 2 bis 4 Tage bei 26°C, read-out: MHK): 64 µg/mL; Gesamtcholesterol ([7]; Dosis 47.1 mg/kg/Tag): -23.1%; HDL-Cholesterol ([7]; Dosis 47.1 mg/kg/Tag): -17.6%; β-Lipoprotein-Cholesterol ([7]; Dosis 47.1 mg/kg/Tag): -32.9%; inhibition at 0.01 µM ([9]; Testkonzentration 10^-8 Mol/l): 85%; inhibition at 0.001 µM ([9]; Testkonzentration 10^-9 Mol/l): 47% |

Source: patent publication EP1060162B1, “URETHANES DERIVED FROM AZACYCLOALKANES, THIO AND DITHIO ANALOGUES, PRODUCTION AND USE THEREOF AS 2,3 EPOXYSQUALENE LANESTEROL CYCLASE INHIBITORS” (Boehringer Ingelheim Pharma KG, priority 1997, dated 1999)
